Laboratory results: patent publication US10940139B2, “Compounds that interact with the Ras superfamily for the treatment of cancers, inflammatory diseases, rasopathies, and fibrotic disease” (Shy Therapeutics LLC, priority 2017, dated 2021)
Read-outs that look alike come from different tables or passages of the source.

Key:
Assay in all cases: Ras GTP binding domain inhibition assay (labeled GTP)
[1] = target: KRas wild type (Homo sapiens (Human), UniProt P01116); details: 20 μM compound
Outline: (§1)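 Ni-plate capture of His-KRas (3-10 μg/ml, o/n, 4° C); Tris pH 7.5/MgCl2/DTT buffer, 1% DMSO. Cpd 20 μM or titration, 3 h RT. Cy3/Cy5-GTP 45 min RT, wash, fluorescence of bound GTP.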

[2] = target: KRas G12C/Q61H double mutant (Homo sapiens (Human), UniProt P01116, G12C/Q61H); details: 20 μM compound
Outline: as §1

[3] = target: KRas Q61H mutant (Homo sapiens (Human), UniProt P01116, Q61H); details: 20 μM compound
Outline: as §1

[4] = target: KRas G12C mutant (Homo sapiens (Human), UniProt P01116, G12C); details: 20 μM compound
Outline: as §1

[5] = target: KRas G12D/Q61H double mutant (Homo sapiens (Human), UniProt P01116, G12D/Q61H); details: for inhibition at 20 µM: 20 μM compound; for IC50: serial dilution, read-out: KRas G12D Q61H (classes E-H, IC50)
Outline: as §1

[6] = target: KRas G12D mutant protein (Homo sapiens (Human), UniProt P01116, G12D); details: 20 μM compound
[7] = read-out: % Inhibition at 20 μM KRas wild type
[8] = read-out: % Inhibition at 20 μM KRas G12C Q61H
[9] = read-out: % Inhibition at 20 μM KRas Q61H
[10] = read-out: % Inhibition at 20 μM KRas G12C
[11] = read-out: % Inhibition at 20 μM KRas G12D Q61H
[12] = read-out: % Inhibition at 20 μM KRas G12D
[13] = KRas wild type, read-out: % Inhibition at 20 μM of K-Ras mutant and wild-type protein, KRas wild type
[14] = KRas G12C/Q61H double mutant, read-out: % Inhibition at 20 μM of K-Ras mutant and wild-type protein, KRas G12C Q61H
[15] = KRas Q61H, read-out: % Inhibition at 20 μM of K-Ras mutant and wild-type protein, KRas Q61H
[16] = KRas G12C, read-out: % Inhibition at 20 μM of K-Ras mutant and wild-type protein, KRas G12C
[17] = KRas G12D/Q61H double mutant, read-out: % Inhibition at 20 μM of K-Ras mutant and wild-type protein, KRas G12D Q61H
[18] = KRas G12D, read-out: % Inhibition at 20 μM of K-Ras mutant and wild-type protein, KRas G12D

KRas Q61H mutant, sequence (P01116-2 other isoform, or with tags, fused parts or gaps Q61H): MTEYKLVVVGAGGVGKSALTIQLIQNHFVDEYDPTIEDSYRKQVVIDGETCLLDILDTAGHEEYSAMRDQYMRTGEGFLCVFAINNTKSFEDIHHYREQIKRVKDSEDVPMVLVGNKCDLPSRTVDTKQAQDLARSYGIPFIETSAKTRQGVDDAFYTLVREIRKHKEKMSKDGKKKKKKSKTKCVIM
KRas wild type, sequence (P01116-2 other isoform, or with tags, fused parts or gaps): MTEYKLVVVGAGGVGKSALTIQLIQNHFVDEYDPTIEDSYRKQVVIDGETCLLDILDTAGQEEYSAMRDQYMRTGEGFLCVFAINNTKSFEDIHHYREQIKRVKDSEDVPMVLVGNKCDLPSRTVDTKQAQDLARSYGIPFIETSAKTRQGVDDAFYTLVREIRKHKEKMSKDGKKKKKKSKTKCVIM
KRas G12C/Q61H double mutant, sequence (P01116-2 other isoform, or with tags, fused parts or gaps G12C/Q61H): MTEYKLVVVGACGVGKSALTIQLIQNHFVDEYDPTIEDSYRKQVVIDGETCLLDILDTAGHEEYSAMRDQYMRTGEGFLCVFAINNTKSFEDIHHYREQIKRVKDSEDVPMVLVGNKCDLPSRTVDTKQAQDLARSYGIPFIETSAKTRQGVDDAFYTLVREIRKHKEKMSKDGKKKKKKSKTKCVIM
KRas G12D/Q61H double mutant, sequence (P01116-2 other isoform, or with tags, fused parts or gaps G12D/Q61H): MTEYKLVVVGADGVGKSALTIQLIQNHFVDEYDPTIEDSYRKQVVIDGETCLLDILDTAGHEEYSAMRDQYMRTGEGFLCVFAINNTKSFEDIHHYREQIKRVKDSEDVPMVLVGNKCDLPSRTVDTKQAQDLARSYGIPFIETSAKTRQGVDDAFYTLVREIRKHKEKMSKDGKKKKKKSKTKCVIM
KRas G12D mutant protein, sequence (P01116-2 other isoform, or with tags, fused parts or gaps G12D): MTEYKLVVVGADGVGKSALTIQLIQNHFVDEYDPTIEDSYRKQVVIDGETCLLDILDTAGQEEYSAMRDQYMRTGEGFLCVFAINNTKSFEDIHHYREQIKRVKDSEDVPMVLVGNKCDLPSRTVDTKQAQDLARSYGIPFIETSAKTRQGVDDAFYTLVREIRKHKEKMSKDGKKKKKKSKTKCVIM
KRas G12C mutant, sequence (P01116-2 other isoform, or with tags, fused parts or gaps G12C): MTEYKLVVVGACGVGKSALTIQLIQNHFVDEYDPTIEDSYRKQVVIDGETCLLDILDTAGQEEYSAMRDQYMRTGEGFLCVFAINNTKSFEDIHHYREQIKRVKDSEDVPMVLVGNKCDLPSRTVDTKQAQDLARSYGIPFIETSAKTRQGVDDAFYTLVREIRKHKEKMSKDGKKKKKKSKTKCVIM

Row | inhibition at 20 µM [1, 7] [%] | inhibition at 20 µM [2, 8] [%] | inhibition at 20 µM [3, 9] [%] | inhibition at 20 µM [4, 10] [%] | inhibition at 20 µM [5, 11] [%] | inhibition at 20 µM [6, 12] [%] | inhibition at 20 µM [1, 13] [%] | inhibition at 20 µM [2, 14] [%] | inhibition at 20 µM [3, 15] [%] | inhibition at 20 µM [4, 16] [%] | inhibition at 20 µM [5, 17] [%] | inhibition at 20 µM [6, 18] [%] | SMILES | IC50 [5] [µM]
1 | 25 to 50 | 25 to 50 | 25 to 50 | 25 to 50 | 25 to 50 | 51 to 75 |  |  |  |  |  |  | COc1ccccc1-c1csc2c(O)nc(-c3ccccn3)nc12 [drawing 2870] | 
2 | 25 to 50 | 51 to 75 | 51 to 75 | 25 to 50 | 51 to 75 | 51 to 75 |  |  |  |  |  |  | Oc1nc(-c2ccccn2)nc2c(-c3ccc(F)cc3F)csc12 [drawing 2871] | 
3 | 51 to 75 | 1 to 25 | 1 to 25 | 25 to 50 | 25 to 50 | 76 to 100 |  |  |  |  |  |  | COc1cccc(-c2csc3c(O)nc(-c4ccccn4)nc23)c1 [drawing 2872] | 
4 | 51 to 75 | 51 to 75 | 51 to 75 | 25 to 50 | 51 to 75 | 51 to 75 |  |  |  |  |  |  | Oc1nc(-c2ccccn2)nc2c(-c3ccc(OC(F)F)cc3F)csc12 [drawing 2876] | 
5 | 51 to 75 | 51 to 75 | 51 to 75 | 51 to 75 | 51 to 75 | 51 to 75 |  |  |  |  |  |  | CC(C)COc1ccc(-c2csc3c(O)nc(-c4ccccn4)nc23)cn1 [drawing 2877] | 
6 | 51 to 75 | 51 to 75 | 51 to 75 | 25 to 50 | 51 to 75 | 51 to 75 |  |  |  |  |  |  | Oc1nc(-c2ccccn2)nc2c(-c3ccc4c(c3)OCO4)csc12 [drawing 2879] | 
7 | 51 to 75 | 51 to 75 | 51 to 75 | 51 to 75 | 51 to 75 | 51 to 75 |  |  |  |  |  |  | CC(C)(O)c1ccc(-c2csc3c(O)nc(-c4ccccn4)nc23)c(F)c1 [drawing 2880] | 
8 | 25 to 50 | 51 to 75 | 51 to 75 | 51 to 75 | 51 to 75 | 51 to 75 |  |  |  |  |  |  | COc1ccc(-c2csc3c(O)nc(-c4ccccn4)nc23)c(C)c1 [drawing 2881] | 
9 | 25 to 50 | 51 to 75 | 51 to 75 | 25 to 50 | 51 to 75 | 51 to 75 |  |  |  |  |  |  | Oc1nc(-c2ccccn2)nc2c(-c3ccccc3C(F)F)csc12 [drawing 2883] | 
10 | 51 to 75 | 51 to 75 | 51 to 75 | 51 to 75 | 51 to 75 | 51 to 75 |  |  |  |  |  |  | COc1cc(-c2csc3c(O)nc(-c4ccccn4)nc23)cnc1C(F)(F)F [drawing 2884] | 
11 | 25 to 50 | 25 to 50 | 25 to 50 | 25 to 50 | 25 to 50 | 25 to 50 |  |  |  |  |  |  | CNC(=O)c1ccc(-c2csc3c(O)nc(-c4ccccn4)nc23)cc1C [drawing 2885] | 
12 | 76 to 100 | 51 to 75 | 51 to 75 | 25 to 50 | 51 to 75 | 76 to 100 |  |  |  |  |  |  | OCC1(c2ccc(-c3csc4c(O)nc(-c5ccccn5)nc34)cc2)CC1 [drawing 2886] | 
13 | 76 to 100 | 51 to 75 | 51 to 75 | 25 to 50 | 51 to 75 | 51 to 75 |  |  |  |  |  |  | Cc1cnccc1-c1csc2c(O)nc(-c3ccccn3)nc12 [drawing 2888] | 
14 | 51 to 75 | 51 to 75 | 76 to 100 | 25 to 50 | 51 to 75 | 76 to 100 |  |  |  |  |  |  | O=C(CCn1ccnc1)Nc1nc(-c2ccccn2)nc2sccc12 [drawing 2889] | 
15 | 51 to 75 | 51 to 75 | 51 to 75 | 25 to 50 | 51 to 75 | 51 to 75 |  |  |  |  |  |  | O=C(CCc1nn[nH]n1)Nc1nc(-c2ccccn2)nc2sccc12 [drawing 2890] | 
16 | 51 to 75 | 76 to 100 | 51 to 75 | 25 to 50 | 51 to 75 | 51 to 75 |  |  |  |  |  |  | O=C(CCc1cncnc1)Nc1nc(-c2ccccn2)nc2sccc12 [drawing 2891] | 
17 | 25 to 50 | 51 to 75 | 51 to 75 | 51 to 75 | 51 to 75 | 51 to 75 |  |  |  |  |  |  | Oc1nc(-c2ccccn2)nc2c(-c3cc(F)cc(F)c3)csc12 [drawing 2900] | > 30
18 |  |  |  |  |  |  | 25 to 50 | 51 to 75 | 51 to 75 | 25 to 50 | 25 to 50 | 51 to 75 | Cc1sc2c(O)nc(-c3ccccn3)nc2c1-c1cccnc1 [drawing 3468] | 
19 |  |  |  |  |  |  | 25 to 50 | 76 to 100 | 51 to 75 | 76 to 100 | 51 to 75 | 51 to 75 | COc1cnc(-c2ccccn2)nc1O [drawing 3469] | 
20 |  |  |  |  |  |  | 25 to 50 | 51 to 75 | 76 to 100 | 25 to 50 | 51 to 75 | 25 to 50 | COc1nc(-c2ccccn2)nc2c(C3CCCC3)csc12 [drawing 3470] | 

Row | SMILES | inhibition at 20 µM [1, 7] [%] | inhibition at 20 µM [2, 8] [%] | inhibition at 20 µM [3, 9] [%] | inhibition at 20 µM [4, 10] [%] | inhibition at 20 µM [5, 11] [%] | inhibition at 20 µM [6, 12] [%] | inhibition at 20 µM [1, 13] [%] | inhibition at 20 µM [2, 14] [%] | inhibition at 20 µM [3, 15] [%] | inhibition at 20 µM [4, 16] [%] | inhibition at 20 µM [5, 17] [%] | inhibition at 20 µM [6, 18] [%] | IC50 [5] [µM]
21 | Oc1nc(-c2ccccn2)nc2c(-c3ccccc3F)csc12 [drawing 2868] | 51 to 75 | 51 to 75 | 51 to 75 | 25 to 50 | 51 to 75 | 51 to 75 |  |  |  |  |  |  | 
22 | Oc1nc(-c2ccccn2)nc2c(-c3cccc(C(F)(F)F)c3)csc12 [drawing 2873] | 25 to 50 | 25 to 50 | 51 to 75 | 25 to 50 | 25 to 50 | 51 to 75 |  |  |  |  |  |  | 
23 | COc1ccc(F)cc1-c1csc2c(O)nc(-c3ccccn3)nc12 [drawing 2874] | 25 to 50 | 25 to 50 | 25 to 50 | 25 to 50 | 51 to 75 | 51 to 75 |  |  |  |  |  |  | 
24 | Oc1nc(-c2ccccn2)nc2c(-c3ccsc3)csc12 [drawing 2875] | 1 to 25 | 25 to 50 | 25 to 50 | 51 to 75 | 25 to 50 | 51 to 75 |  |  |  |  |  |  | 
25 | Oc1nc(-c2ccccn2)nc2c(-c3ccccn3)csc12 [drawing 2896] | 51 to 75 | 51 to 75 | 25 to 50 | 25 to 50 | 1 to 25 | 25 to 50 |  |  |  |  |  |  | 
26 | CN1CCN(c2nc(-c3ccccn3)nc3scc(C(=O)NCCc4cnc(O)nc4)c23)CC1 [drawing 2899] | 1 to 25 | 51 to 75 | 51 to 75 | 1 to 25 | 25 to 50 | 51 to 75 |  |  |  |  |  |  | > 30
27 | CN(C)Cc1ccc(F)c(-c2csc3c(O)nc(-c4ccccn4)nc23)c1 [drawing 2901] | 51 to 75 | 51 to 75 | 51 to 75 | 25 to 50 | 25 to 50 | 51 to 75 |  |  |  |  |  |  | 11 to 30
28 | Oc1nc(-c2ccccn2)nc2c(-c3ccc4c(c3)CCCO4)csc12 [drawing 2902] | 25 to 50 | 25 to 50 | 51 to 75 | 25 to 50 | 25 to 50 | 51 to 75 |  |  |  |  |  |  | 
29 | Cc1sc2c(O)nc(-c3ccccn3)nc2c1-c1ccccc1 [drawing 2905] | 1 to 25 | 25 to 50 | 25 to 50 | 25 to 50 | 51 to 75 | 51 to 75 |  |  |  |  |  |  | 
30 | CCC(C)c1csc2c(OC)nc(-c3ccccn3)nc12 (stereo not drawn) [drawing 3471] |  |  |  |  |  |  | 25 to 50 | 51 to 75 | 51 to 75 | 25 to 50 | 51 to 75 | 25 to 50 | 
